Source: patent publication US6472348B1, “Pyridone derivatives and herbicides” (Kumiai Chemical Industry Co., Ltd., priority 1996, dated 2002)

What was measured:
[1] = tested on: barnyardgrass (Ec); test: Test Example 1: herbicidal effects by paddy field soil treatment; format: in vivo; conditions: 100 g of the active ingredient per 10 ares, 21st day after the application, index 0-5 of Table 47;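 also: grade of growth control; 5 = at least 90%; 4 = 70 to 90%; 3 = 50 to 70%; 2 = 30 to 50%; 1 = 10 to 30%; 0 = under 10%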
Method in brief: (§1)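 Greenhouse pot test in flooded paddy soil, dosed at 100 g a.i. per 10 ares; effect scored on day 21.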

[2] = tested on: bulrush (Sc); test: as above; format: in vivo; conditions: 100 g of the active ingredient per 10 ares, 21st day after the application, index 0-5 of Table 47;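 also: grade of growth control; 5 = at least 90%; 4 = 70 to 90%; 3 = 50 to 70%; 2 = 30 to 50%; 1 = 10 to 30%; 0 = under 10%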
Method in brief: as §1

[3] = tested on: monochoria (Mo); test: as above; format: in vivo; conditions: 100 g of the active ingredient per 10 ares, 21st day after the application, index 0-5 of Table 47;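 also: grade of growth control; 5 = at least 90%; 4 = 70 to 90%; 3 = 50 to 70%; 2 = 30 to 50%; 1 = 10 to 30%; 0 = under 10%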
Method in brief: as §1

[4] = tested on: Digitaria ciliaris (Di); test: Test Example 2: herbicidal effects by upland field soil treatment; format: in vivo; conditions: 100 g of the active ingredient per 10 ares;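 also: grade of growth control; 5 = at least 90%; 4 = 70 to 90%; 3 = 50 to 70%; 2 = 30 to 50%; 1 = 10 to 30%; 0 = under 10%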
Description: (§2) (Test on Herbicidal Effects by Upland Field Soil Treatment)

[5] = tested on: barnyardgrass (Ec); test: as above; format: in vivo; conditions: 100 g of the active ingredient per 10 ares
Description: as §2

[6] = tested on: common lambsquarters (Ch); test: as above; format: in vivo; conditions: 100 g of the active ingredient per 10 ares
Description: as §2

[7] = tested on: pale smartweed (Po); test: as above; format: in vivo; conditions: 100 g of the active ingredient per 10 ares
Description: as §2

[8] = tested on: rice flatsedge (Ci); test: as above; format: in vivo; conditions: 100 g of the active ingredient per 10 ares
Description: as §2

[9] = tested on: slender amaranth (Am); test: as above; format: in vivo; conditions: 100 g of the active ingredient per 10 ares
Description: as §2

[10] = tested on: Diaitaria ciliaris (Di); test: Test Example 3: herbicidal effects by upland field foliage treatment; format: in vivo; parameters: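 grade of growth control; 5 = at least 90%; 4 = 70 to 90%; 3 = 50 to 70%; 2 = 30 to 50%; 1 = 10 to 30%; 0 = under 10%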; conditions: 100 g active ingredient per 10 ares, evaluated 14th day after treatment
Method in brief: (§3)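 Scores reflect herbicidal effect graded by standards on the 14th day after foliage treatment of weeds grown 2 weeks in a greenhouse.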

[11] = tested on: barnyardgrass (Ec); test: as above; format: in vivo; parameters: scale not given here; conditions: 100 g active ingredient per 10 ares, evaluated 14th day after treatment
Method in brief: as §3

[12] = tested on: common lambsquarters (Ch); test: as above; format: in vivo; parameters: scale not given here; conditions: 100 g active ingredient per 10 ares, evaluated 14th day after treatment
Method in brief: as §3

[13] = tested on: pale smartweed (Po); test: as above; format: in vivo; parameters: scale not given here; conditions: 100 g active ingredient per 10 ares, evaluated 14th day after treatment
Method in brief: as §3

[14] = tested on: rice flatsedge (Ci); test: as above; format: in vivo; parameters: scale not given here; conditions: 100 g active ingredient per 10 ares, evaluated 14th day after treatment
Method in brief: as §3

[15] = tested on: slender amaranth (Am); test: as above; format: in vivo; parameters: scale not given here; conditions: 100 g active ingredient per 10 ares, evaluated 14th day after treatment
Method in brief: as §3

[16] = tested on: wheat (Tr); test: Test Example 9: crop plant selectivity by upland field foliage treatment (wheat), phytotoxicity; conditions: dose 1.6 g ai/10a, 14th day after treatment
Method in brief: (§4)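 Seeds of wheat, pale smartweed, slender amaranth, common lambsquarters and China jute are sown in sand and grown 2 weeks under glass. Foliage is then treated, culture resumes in the greenhouse, and damage is graded on the 14th day.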

[17] = tested on: China jute (Ab); test: Test Example 9: crop plant selectivity by upland field foliage treatment (wheat), herbicidal effects; format: in vivo; parameters: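 grade of growth control; 5 = at least 90%; 4 = 70 to 90%; 3 = 50 to 70%; 2 = 30 to 50%; 1 = 10 to 30%; 0 = under 10%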; conditions: dose 1.6 g ai/10a, 14th day after treatment
Method in brief: as §4

[18] = tested on: common lambsquarters (Ch); test: as above; format: in vivo; parameters: scale not given here; conditions: dose 1.6 g ai/10a, 14th day after treatment
Method in brief: as §4

[19] = tested on: pale smartweed (Po); test: as above; format: in vivo; parameters: scale not given here; conditions: dose 1.6 g ai/10a, 14th day after treatment
Method in brief: as §4

[20] = tested on: slender amaranth (Am); test: as above; format: in vivo; parameters: scale not given here; conditions: dose 1.6 g ai/10a, 14th day after treatment
Method in brief: as §4

[21] = tested on: corn (Ze); test: Test Example 11: crop plant selectivity by upland field foliage treatment (corn), phytotoxicity; conditions: upland field foliage treatment, dose 1.6 g ai/10a, 14th day after treatment
Method in brief: (§5)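 Corn and the weed species were sown together in sand-filled pots and grown in a greenhouse for 2 weeks before foliar treatment. Herbicidal effect was scored on day 14 after treatment against a graded standard scale, with corn phytotoxicity scored alongside.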

[22] = tested on: China jute (Ab); test: Test Example 11: crop plant selectivity by upland field foliage treatment (corn), herbicidal effects; format: in vivo; parameters: scale not given here; conditions: upland field foliage treatment (corn test), dose 1.6 g ai/10a, 14th day after treatment
Method in brief: as §5

[23] = tested on: common lambsquarters (Ch); test: as above; format: in vivo; parameters: scale not given here; conditions: upland field foliage treatment (corn test), dose 1.6 g ai/10a, 14th day after treatment
Method in brief: as §5

[24] = tested on: pale smartweed (Po); test: as above; format: in vivo; parameters: scale not given here; conditions: upland field foliage treatment (corn test), dose 1.6 g ai/10a, 14th day after treatment
Method in brief: as §5

[25] = tested on: slender amaranth (Am); test: as above; format: in vivo; parameters: scale not given here; conditions: upland field foliage treatment (corn test), dose 1.6 g ai/10a, 14th day after treatment
Method in brief: as §5

[26] = tested on: soybean (Gl); test: Test Example 10: crop plant selectivity by upland field foliage treatment (soybean), phytotoxicity; conditions: dose 1.6 g ai/10a, 14th day after treatment
Description: (§6) (Test on Crop Plant Selectivity by Upland Field Foliage Treatment)
(§7) In a plastic pot (surface area: 600 cm^2) filled with sand, soybean (Gl), pale smartweed (Po), slender amaranth (Am), common lambsquarters (Ch) and China jute (Ab) were sown and cultured in a green house for 2 weeks. […] The plants were then cultured in a green house, and the evaluation of the herbicidal effects and phytotoxicity was conducted on the 14th day after the treatment in accordance with the standards as identified in Table 47.

[27] = tested on: China jute (Ab); test: Test Example 10: crop plant selectivity by upland field foliage treatment (soybean), herbicidal effects; format: in vivo; conditions: dose 1.6 g ai/10a, 14th day after treatment
Description: as §6, §7

[28] = tested on: common lambsquarters (Ch); test: as above; format: in vivo; conditions: dose 1.6 g ai/10a, 14th day after treatment
Description: as §6, §7

[29] = tested on: pale smartweed (Po); test: as above; format: in vivo; conditions: dose 1.6 g ai/10a, 14th day after treatment
Description: as §6, §7

[30] = tested on: slender amaranth (Am); test: as above; format: in vivo; conditions: dose 1.6 g ai/10a, 14th day after treatment
Description: as §6, §7

[31] = evaluated on the 21st day after application
[32] = 21st day after the application, index 0-5 of Table 47

Row | SMILES | Herbicidal effects Ec [1] | Herbicidal effects Sc [2] | Herbicidal effects Mo [3] | Herbicidal effects Di [4, 31] | Herbicidal effects Ec [5, 31] | Herbicidal effects Ch [6, 31] | Herbicidal effects Po [7, 31] | Herbicidal effects Ci [8, 31] | Herbicidal effects Am [9, 31] | Herbicidal effects Di [10] | Phytotoxicity Tr [16] | Herbicidal effects Ab [17] | Herbicidal effects Ch [18] | Herbicidal effects Po [19] | Herbicidal effects Am [20] | Phytotoxicity Ze [21] | Herbicidal effects Ab [22] | Herbicidal effects Ch [23] | Herbicidal effects Po [24] | Herbicidal effects Am [25] | other results
1 | Cn1c(C(F)(F)F)ccc(-c2c(F)cc(Cl)c3oc(C(Br)Br)cc23)c1=O [Compound No. 4-27, 3-(7-chloro-2-dibromomethyl-5-fluorobenzofuran-4-yl)-1-methyl-6-trifluoromethyl-2-(1H)-pyridone] | 5 | 5 | 5 | 5 | 4 | 5 | 5 | 5 | 5 | 5 | 2 | 5 | 5 | 5 | 5 | 2 | 5 | 5 | 5 | 5 | Herbicidal effects Ec [11]: 4; Herbicidal effects Ch [12]: 5; Herbicidal effects Po [13]: 5; Herbicidal effects Ci [14]: 5; Herbicidal effects Am [15]: 5; melting point: 107 to 109 °C
2 | CCCOCc1cc2c(-c3ccc(C(F)(F)F)n(C)c3=O)c(F)cc(Cl)c2o1 [Compound 4-32] | 5 | 5 | 5 | 5 | 5 | 5 | 5 | 5 | 5 | 5 | 2 | 5 | 5 | 5 | 5 | 2 | 5 | 5 | 5 | 5 | Herbicidal effects Ec [11]: 5; Herbicidal effects Ch [12]: 5; Herbicidal effects Po [13]: 5; Herbicidal effects Ci [14]: 5; Herbicidal effects Am [15]: 5; Phytotoxicity Gl [26]: 2; Herbicidal effects Ab [27]: 5; Herbicidal effects Ch [28]: 5; Herbicidal effects Po [29]: 5; Herbicidal effects Am [30]: 5
3 | C#CCSc1cc(-c2ccc(C(F)(F)F)n(C)c2=O)c(Cl)cc1Cl [1-52] |  |  |  |  |  |  |  |  |  |  | 1 | 5 | 5 | 5 | 5 | 2 | 5 | 5 | 5 | 5 | Herbicidal effects Di [4, 32]: 5; Herbicidal effects Ec [5, 32]: 5; Herbicidal effects Ch [6, 32]: 5; Herbicidal effects Po [7, 32]: 5; Herbicidal effects Ci [8, 32]: 5; Herbicidal effects Am [9, 32]: 5; Phytotoxicity Gl [26]: 2; Herbicidal effects Ab [27]: 5; Herbicidal effects Ch [28]: 5; Herbicidal effects Po [29]: 5; Herbicidal effects Am [30]: 5
